Laboratory results published in publication PMC4257840 (Journal of Medicinal Chemistry, 2014).

Legend:
[1] = biological target: T1, Cathepsin C from bovine spleen (Bos taurus, UniProt Q3ZCJ8); test: Protease counter-screening: Cathepsin C; assay type: biochemical
T1 construct: Cathepsin C from bovine spleen was used as the source of; from tissue; host or cells: bovine spleen
Protocol: (§1) Appendix 7. Protease Counter -Screening
(§2) Protease counter-screeni ng was performed using the methods described below. Initial screening was conducted in duplicate using a single test substance concentration of 10 µ M .
(§3) Additional assays were conducted in replicate for selected pairin gs of test s ubstance and enz yme in order to enable the determination of IC50 values using conventional procedures.
(§4) Determination of K i was made using the Batch K i program (Biokin Ltd, Pullman, WA) to derive values from the Morrison equation: […]
(§5) Where [E ] is the active enz yme concentration, Kiapp is the apparent inhibition const ant, v 0 is the control velocit y in the absence of inhibitors, vb is the background velocity, v is the initial reaction velocit y in the presence of inhibitor, and I is the inhibitor concentration.Thence:
Where [S ] is the substrate concentration and KM is the Michealis constant. […]
by addition of 50 µM Ac-DEVD-AMC for another 60 min incubation period. The amount of AMC formed was determined fluorimetricall y (excitation 360 nm/emission 465 nm). […]
by addition of 25 µM Ac-LEH D-A FC for another 60 min incubation period. The amount of amino-4- trifluorometh ylcoumarin (AFC) formed determined fluorimetrically (400nm/ 510nm).
Cathepsin C: Cathepsin C from bovine spleen was used as the source of enz yme. […] T he amount of AMC product formed was read spectrofluorimetrically

[2] = biological target: T2, Cathepsin D (Homo sapiens, UniProt P07339); test: Protease counter-screening: Cathepsin D; assay type: biochemical
T2 construct: purified from human li ver; from tissue; host or cells: human liver
T2 sequence (P07339 65-412): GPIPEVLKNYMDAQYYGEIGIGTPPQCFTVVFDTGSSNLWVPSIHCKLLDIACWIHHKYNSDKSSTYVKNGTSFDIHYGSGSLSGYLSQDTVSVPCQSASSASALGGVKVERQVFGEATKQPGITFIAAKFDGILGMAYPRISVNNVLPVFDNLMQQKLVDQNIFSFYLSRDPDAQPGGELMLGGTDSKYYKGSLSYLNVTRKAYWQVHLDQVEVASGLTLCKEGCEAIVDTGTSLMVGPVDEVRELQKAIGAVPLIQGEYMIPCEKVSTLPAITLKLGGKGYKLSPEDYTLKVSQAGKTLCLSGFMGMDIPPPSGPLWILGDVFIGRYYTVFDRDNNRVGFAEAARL
Protocol: as §1, §2, §3, §4, §5
Where [S ] is the substrate concentration and KM is the Michealis constant.
Caspase 1: Activity against human recombinant caspase 1 expressed in E. coli was tested using Ac-YVAD- AMC as the substrate. Test compound or vehicle was pre- incubated with 600 […]
Cathep sin D: Tests were performed using enz ym e purified from human li ver. Test compound or vehicle was pre- incubated with 190 mU/mL enz yme in modified acetate buffer pH 4.0 for 15 min at 37 °C. […]
The amount of MCA-P LG formed was measured spectrofluorimetricall y at 340 nm/400 nm. […]

[3] = Plasma protein binding, Rapid Equilibrium Dialysis; assay type: in vitro ADME; conditions: both sexes, Sprague Dawley, plasma (EDTA K2, pooled), rat plasma, 4 h at 37 °C, read-out: PPB (converted)
Protocol: Appendix 2. Pharmaco kinetics an d P l a s ma Protein Binding […]
Plasma Protein Binding Assay. PPB was determined with a Rapid Equilibrium Dialysis device using 8 kDa molecular weight cut-off inserts (Fisher Scientific UK Ltd, Leicest ershire, UK) as described b y the manufacturer. R at (Sprague Dawl e y strain) plasma EDTA K2 (mixed gender, pooled, SeraLab, West Sussex, UK) was thawed and centrifuged at 13,000 x g for 10 min to remove precipitates before being spiked with compounds (5 µM). The concentrations of compounds in the plasma and buffer chambers were determined b y LC -MS-MS (AB Sciex 3200 QTrap) anal ysis after 4 h incubation at 37 °C. Binding was calculated from the concentration percentage in both chambers as shown below. Assays were p erfo rmed in replicate and the data

[4] = system: nonsensitized rats challenged with a natural mixture of HDM allergens; conditions: i.t. aerosol typically 60-360 min prior to allergen challenge, unsensitised BN rats

T1 sequence (Q3ZCJ8 25-463): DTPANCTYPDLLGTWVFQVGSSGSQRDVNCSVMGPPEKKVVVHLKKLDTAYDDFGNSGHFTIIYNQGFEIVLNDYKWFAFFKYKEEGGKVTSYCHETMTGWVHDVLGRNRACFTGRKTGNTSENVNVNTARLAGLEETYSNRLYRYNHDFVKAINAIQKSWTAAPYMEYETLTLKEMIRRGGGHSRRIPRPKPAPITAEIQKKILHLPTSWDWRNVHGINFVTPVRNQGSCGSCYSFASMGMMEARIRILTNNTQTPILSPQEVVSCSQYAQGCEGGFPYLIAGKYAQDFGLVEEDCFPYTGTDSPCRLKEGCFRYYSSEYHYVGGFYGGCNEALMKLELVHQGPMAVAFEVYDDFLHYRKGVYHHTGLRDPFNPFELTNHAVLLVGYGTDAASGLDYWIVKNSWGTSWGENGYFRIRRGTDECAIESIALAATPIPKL

CC(C)[C@H](NC(=O)[C@H](C)NC(=O)[C@@H](NC(=O)c1ccccc1)C(C)(C)C)C(=O)C(=O)NCc1ccccc1 [Compound 38, N-{(S)-1-[(S)-1-((S)-1-Benzylaminooxalyl-2-methyl-propylcarbamoyl)-ethylcarbamoyl]-2,2-dimethyl-propyl}-benzamide]
inhibition at 10 µM [1]: 0%
inhibition at 10 µM [2]: 2%
fraction unbound at 4 h, 5 µM [3]: 0.04
duration of protection: trend of inhibition of eosinophil recruitment with increasing pre-treatment interval [4]: rise to well-maintained
